Test system: basal gastric acid secretion
Assay: Inhibition of Total Acid Output in the Acute Gastric Fistula Rat (inhibition of basal gastric acid secretion)
Type: in vivo, Female Sprague-Dawley rats
Details: 10 mg./kg. intraduodenal, vs concurrent vehicle control; for Total Acid Output % Inhibition, 60"(A): sample A, 60 minutes; for Total Acid Output % Inhibition, 120"(B): sample B, 120 minutes
Description: The natural prostaglandins have a broad spectrum of biological properties. Because of these diverse effects their potential therapeutic use is limited. […] On the other hand, they do inhibit gastic acid secretion and accordingly are potentially useful for the treatment of peptic ulcers, gastric hyperacidity and gastric erosion. Inhibition of basal gastric acid secretion can be determined by the following procedure. Female Sprague-Dawley rats weighing 140-160 grams are fasted in individual cages for 18-24 hours. The rats are then lightly anesthetized with ether and their front teeth extracted to avoid destruction of the plastic cannula. A midline incision is then made and the stomach and duodenum exposed. A flanged polyvinyl tube is inserted into the fundic portion of the stomach and secured with a purse string suture line using 4-0 Mersilene. The rat is then dosed by injection of the compound into the duodenum (1.0 ml. per 100 gram body weight). After dosing, the abdominal wall and skin are closed using metal wound clips. The rat is replaced in a cage containing a longitudinal slit to allow the polyvinyl tube to hang freely. An 8 ml. plastic collecting tube is attached to the flanged cannula and hangs freely below the cage. The first 30 minute sample is discarded designating this time as zero. The collecting tube is attached again and samples removed at the end of 60 and 120 minutes. These samples are referred to as A and B in the table. The hourly samples are then transferred to a 15 ml. centrifuge and centrifuged for 5-10 minutes. Total and sediment volume are then recorded with the supernatant volume being used as volume of secretion. A 1 ml. or less aliquot is then removed and placed in a 50 ml. beaker containing 10 ml. of distilled water. This sample is then titrated using 0.01N NaOH to pH 7.0 using a Beckman zeromatic pH meter, Volume, titratable acidity (meq/L), and total acid output (ueg/hour) are recorded. Percent inhibition is determined by comparison with the appropriate control. Groups of three rats were used for preliminary testing, and groups of six rats were used for dose-response evaluations. All compounds are administered in a vehicle consisting of 0.5% methocel, 0.4% Tween 80, and saline at a constant volume of 1 ml./100 gram rat. Samples are dispersed by sonification. Percent inhibition is calculated on basis of concurrent vehicle control.
In Table A which follows is given the effect on total acid output after 120 minutes of a 10 mg./kg. intraduodenal dose of representative compounds of this invention.

Structure (SMILES) | Total Acid Output % Inhibition, 60"(A) | Total Acid Output % Inhibition, 120"(B)
CCCCC[C@@H](O)/C=C/[C@H]1CC=CC(=O)[C@@H]1CCCCCCC(=O)O (relative stereo) [9-oxo-15-epi-hydroxy-11a-homo-10,13-trans-prostadienoic acid] | 43% | 47%
CCCCC[C@H](O)/C=C/[C@H]1CC=CC(=O)[C@@H]1CCCCCCC(=O)O (relative stereo) [dl-11a-homoprostaglandin A1, 9-oxo-15-hydroxy-11a-homo-10,13-trans-prostadienoic acid] | 35% | 33%
CCCCC[C@H](O)/C=C/[C@H]1C[C@H](O)CC(=O)[C@@H]1CCCCCCC(=O)O (relative stereo) [dl-11a-homoprostaglandin E1, 9-oxo-11α,15-dihydroxy-11a-homo-13-trans-prostenoic acid] | 69% | 74%
